Measurements: article PMC9870012 (Journal of Enzyme Inhibition and Medicinal Chemistry, 2023)

How the values were obtained:
MMP2 = molecular target: T1, MMP2 (Homo sapiens, UniProt P08253); experiment: Off-target metalloprotease inhibition, MMP2; assay type: biochemical; settings: read-out: Residual activity MMP2
T1 sequence (P08253 110-660): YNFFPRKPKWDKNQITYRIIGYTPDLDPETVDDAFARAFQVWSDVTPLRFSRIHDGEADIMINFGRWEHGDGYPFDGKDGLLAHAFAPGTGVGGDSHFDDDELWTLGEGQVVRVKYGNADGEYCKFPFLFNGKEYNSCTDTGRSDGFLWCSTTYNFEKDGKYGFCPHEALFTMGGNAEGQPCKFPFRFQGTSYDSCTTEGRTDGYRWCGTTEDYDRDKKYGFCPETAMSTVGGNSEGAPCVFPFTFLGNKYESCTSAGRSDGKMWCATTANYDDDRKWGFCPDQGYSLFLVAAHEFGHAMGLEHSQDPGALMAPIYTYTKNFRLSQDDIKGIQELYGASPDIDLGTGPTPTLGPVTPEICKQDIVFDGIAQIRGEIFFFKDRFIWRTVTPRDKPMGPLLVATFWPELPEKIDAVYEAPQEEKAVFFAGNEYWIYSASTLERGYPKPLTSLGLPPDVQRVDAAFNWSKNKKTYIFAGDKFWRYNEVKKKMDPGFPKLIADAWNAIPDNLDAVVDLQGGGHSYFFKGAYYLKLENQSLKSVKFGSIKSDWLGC

ADAM10 = molecular target: T2, ADAM10 (Homo sapiens, UniProt O14672); experiment: Off-target metalloprotease inhibition, ADAM10; assay type: biochemical; settings: read-out: Residual activity ADAM10
T2 sequence (O14672 214-748): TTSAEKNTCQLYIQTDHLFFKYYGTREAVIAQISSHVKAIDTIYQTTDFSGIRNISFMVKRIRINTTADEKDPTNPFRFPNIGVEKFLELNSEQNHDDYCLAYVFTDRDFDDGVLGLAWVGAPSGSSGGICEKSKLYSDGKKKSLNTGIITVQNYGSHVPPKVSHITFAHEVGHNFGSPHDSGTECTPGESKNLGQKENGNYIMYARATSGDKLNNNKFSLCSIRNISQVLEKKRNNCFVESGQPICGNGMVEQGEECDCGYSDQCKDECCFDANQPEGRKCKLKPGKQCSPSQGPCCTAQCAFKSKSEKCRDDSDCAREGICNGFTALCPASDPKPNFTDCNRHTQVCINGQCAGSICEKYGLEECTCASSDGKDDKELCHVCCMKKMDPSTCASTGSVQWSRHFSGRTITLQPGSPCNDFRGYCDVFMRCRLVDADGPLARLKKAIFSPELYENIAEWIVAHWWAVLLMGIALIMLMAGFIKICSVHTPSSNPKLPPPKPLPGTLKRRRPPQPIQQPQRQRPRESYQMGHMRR

ADAM17 = ADAM17 (Homo sapiens, UniProt P78536); experiment: Off-target metalloprotease inhibition, ADAM17; assay type: biochemical; settings: read-out: Residual activity ADAM17
human meprin β = molecular target: T3, human meprin β (Homo sapiens, UniProt Q16820); assay type: biochemical; settings: for Ki: Ki(app) Meprin β, geometric mean of three independent experiments with standard deviation factor
T3 sequence (Q16820 62-701): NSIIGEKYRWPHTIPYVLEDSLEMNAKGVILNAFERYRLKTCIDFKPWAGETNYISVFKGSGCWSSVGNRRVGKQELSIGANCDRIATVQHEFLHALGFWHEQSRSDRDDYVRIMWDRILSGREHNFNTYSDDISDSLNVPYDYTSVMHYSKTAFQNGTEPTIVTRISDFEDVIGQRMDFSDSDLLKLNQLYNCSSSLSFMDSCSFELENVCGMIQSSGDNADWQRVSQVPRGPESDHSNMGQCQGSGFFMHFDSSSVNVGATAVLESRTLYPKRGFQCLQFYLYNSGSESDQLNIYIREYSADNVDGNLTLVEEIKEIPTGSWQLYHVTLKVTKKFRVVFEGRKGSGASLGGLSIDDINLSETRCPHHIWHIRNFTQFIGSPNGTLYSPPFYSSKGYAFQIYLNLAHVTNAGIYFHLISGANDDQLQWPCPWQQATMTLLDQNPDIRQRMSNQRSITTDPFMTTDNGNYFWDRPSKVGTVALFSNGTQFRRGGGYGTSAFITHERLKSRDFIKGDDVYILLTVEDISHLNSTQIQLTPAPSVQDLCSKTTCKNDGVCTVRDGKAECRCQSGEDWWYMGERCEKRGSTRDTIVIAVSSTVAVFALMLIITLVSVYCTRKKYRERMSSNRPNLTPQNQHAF

human meprin α = molecular target: T4, human meprin α (Homo sapiens, UniProt Q16819); assay type: biochemical; settings: for Ki: Ki(app) Meprin α, geometric mean of three independent experiments with standard deviation factor; for SF: selectivity factor (Ki(app) meprin β/Ki(app) meprin α): meprin α over meprin β
T4 sequence (Q16819 66-746): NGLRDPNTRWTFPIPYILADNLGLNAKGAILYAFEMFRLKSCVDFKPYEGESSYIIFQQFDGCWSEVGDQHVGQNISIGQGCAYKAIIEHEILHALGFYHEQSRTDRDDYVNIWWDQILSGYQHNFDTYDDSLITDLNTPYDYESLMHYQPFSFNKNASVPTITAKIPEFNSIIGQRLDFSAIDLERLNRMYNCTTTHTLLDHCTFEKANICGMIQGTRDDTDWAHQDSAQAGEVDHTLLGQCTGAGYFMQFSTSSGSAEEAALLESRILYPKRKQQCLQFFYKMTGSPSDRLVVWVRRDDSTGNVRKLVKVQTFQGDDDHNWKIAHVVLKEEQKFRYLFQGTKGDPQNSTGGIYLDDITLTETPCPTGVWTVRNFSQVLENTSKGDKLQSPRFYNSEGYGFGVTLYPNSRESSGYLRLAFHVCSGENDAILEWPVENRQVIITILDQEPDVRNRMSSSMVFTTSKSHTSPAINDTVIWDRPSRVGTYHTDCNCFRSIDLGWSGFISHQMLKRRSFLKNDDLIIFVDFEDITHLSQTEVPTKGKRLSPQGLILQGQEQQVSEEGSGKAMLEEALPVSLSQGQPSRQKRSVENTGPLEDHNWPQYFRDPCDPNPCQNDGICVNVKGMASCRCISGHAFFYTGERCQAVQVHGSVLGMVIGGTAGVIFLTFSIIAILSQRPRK

Cell viability assay [1] = assay type: cell-based; settings: human, SH-SY5Y cells
MMPs and ADAMs = experiment: Off-target metalloprotease panel; assay type: biochemical, human; settings: 10 µM inhibitor concentration
MMP9 = MMP9 (Homo sapiens, UniProt P14780); experiment: Off-target metalloprotease inhibition, MMP9; assay type: biochemical; settings: read-out: Residual activity MMP9
Cell viability assay [2] = assay type: cell-based; settings: human, Hep-G2 cells
MMP13 = MMP13 (Homo sapiens, UniProt P45452); experiment: Off-target metalloprotease inhibition, MMP13; assay type: biochemical; settings: read-out: Residual activity MMP13

Sequence of MMP9 (P14780 107-707 limits assumed): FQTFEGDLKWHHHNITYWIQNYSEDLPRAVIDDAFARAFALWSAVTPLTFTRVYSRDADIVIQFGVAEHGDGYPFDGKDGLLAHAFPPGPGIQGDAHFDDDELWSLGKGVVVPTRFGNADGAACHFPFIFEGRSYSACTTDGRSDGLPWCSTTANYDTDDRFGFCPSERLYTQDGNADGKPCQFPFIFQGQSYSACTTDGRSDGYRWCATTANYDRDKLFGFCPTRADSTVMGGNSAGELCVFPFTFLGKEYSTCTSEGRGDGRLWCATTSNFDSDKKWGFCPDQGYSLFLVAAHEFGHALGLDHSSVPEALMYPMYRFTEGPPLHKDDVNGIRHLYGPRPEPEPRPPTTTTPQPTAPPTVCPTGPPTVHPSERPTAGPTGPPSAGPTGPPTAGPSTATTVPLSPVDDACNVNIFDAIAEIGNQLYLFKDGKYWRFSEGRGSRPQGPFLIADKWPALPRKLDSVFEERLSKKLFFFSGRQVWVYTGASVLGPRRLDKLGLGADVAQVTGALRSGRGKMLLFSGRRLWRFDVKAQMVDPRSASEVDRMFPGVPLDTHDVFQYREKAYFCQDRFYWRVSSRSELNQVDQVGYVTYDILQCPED
Sequence of ADAM17 (P78536 215-824): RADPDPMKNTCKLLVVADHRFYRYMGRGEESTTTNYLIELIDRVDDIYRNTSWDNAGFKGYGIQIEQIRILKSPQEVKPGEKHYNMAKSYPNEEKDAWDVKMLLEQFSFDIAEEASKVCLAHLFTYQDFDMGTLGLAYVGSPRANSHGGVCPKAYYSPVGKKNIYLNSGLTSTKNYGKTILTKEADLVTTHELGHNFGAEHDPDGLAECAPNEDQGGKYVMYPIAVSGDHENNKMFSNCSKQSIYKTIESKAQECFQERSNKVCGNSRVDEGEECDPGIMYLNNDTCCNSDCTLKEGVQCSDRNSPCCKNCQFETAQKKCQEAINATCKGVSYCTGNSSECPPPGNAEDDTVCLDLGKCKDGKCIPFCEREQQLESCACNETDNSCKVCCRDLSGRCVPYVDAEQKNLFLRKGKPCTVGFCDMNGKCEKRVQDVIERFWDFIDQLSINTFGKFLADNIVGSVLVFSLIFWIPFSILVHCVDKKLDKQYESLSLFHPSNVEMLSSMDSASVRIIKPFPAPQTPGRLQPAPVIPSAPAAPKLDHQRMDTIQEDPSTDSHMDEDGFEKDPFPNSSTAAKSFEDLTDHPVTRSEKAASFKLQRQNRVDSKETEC

Structure (SMILES) | remaining activity at 10 µM (MMP2) [%] | remaining activity at 10 µM (ADAM10) [%] | remaining activity at 10 µM (ADAM17) [%] | Ki (human meprin β) [nM] | Ki (human meprin α) [nM] | SF: selectivity factor (Ki(app) meprin β/Ki(app) meprin α) (human meprin α) | viability at 24 h, 30 µM (Cell viability assay [1]) [%] | residual activities of the respective MMPs and ADAMs (MMPs and ADAMs) | remaining activity at 10 µM (MMP9) [%] | viability at 24 h, 30 µM (Cell viability assay [2]) [%] | remaining activity at 10 µM (MMP13) [%] | fold increase in potency against meprin β (human meprin β; compared to 21e) [fold]
O=C(Cc1c(-c2cccc(C(=O)O)c2)n[nH]c1-c1cc(F)c(O)c(Cl)c1)NO [16j, 3-[5-(3-Chloro-5-fluoro-4-hydroxy-phenyl)-4-[2-(hydroxyamino)-2-oxo-ethyl]-1H-pyrazol-3-yl]benzoic acid] | 95 | 90 | 99 | 0.2 | 0.1 | 2 | 110 | above 90% | 94 | 98 | 105 | 
O=C(Cc1c(-c2ccccc2)nn(Cc2ccc(C(=O)O)cc2)c1-c1ccccc1)NO [21h, 4-[[4-[2-(Hydroxyamino)-2-oxo-ethyl]-3,5-diphenyl-pyrazol-1-yl]methyl]benzoic acid] | 85 | 91 | 67 | 9.4 | 0.4 | 24 | 88 |  | 80 | 103 | 86 | 30
O=C(Cc1c(-c2ccccc2)nn(Cc2ccc(Cl)c(O)c2F)c1-c1ccccc1)NO [21i, 2-[1-[(4-Chloro-2-fluoro-3-hydroxy-phenyl)methyl]-3,5-diphenyl-pyrazol-4-yl]ethane-hydroxamic acid] | 69 | 85 | 72 | 9.3 |  | 116 | 79 |  | 70 | 107 | 84 | 
